Experimental data reported in patent US20080051447A1, “Treatment Of Hypercholesterolemia, Hypertriglyceridemia And Cardiovascular-Related Conditions Using Phospholipase-A2 Inhibitors” (priority 2005, published 2008).

How the values were obtained:
[1] = biological target: porcine pancreatic secreted PLA2 (pps PLA2) (Sus scrofa, UniProt P00592); conditions: reported activity data; cited from earlier work
[2] = biological target: human pancreatic secreted PLA2 (hps PLA2) (Homo sapiens, UniProt P04054); conditions: reported activity data; cited from earlier work
[3] = test system: wild-type C57BL/6 mice on high fat/high sucrose diet; experiment: Body weight gain in mice on high fat/high sucrose diabetogenic diet (Example 5A); assay type: in vivo; conditions: for body weight gain compared to the wild-type control group: week 4 and week 10
Procedure: (§1) ILY-4001 (FIG. 2) was evaluated as a PLA2 IB inhibitor in a set of experiments using wild-type mice and genetically deficient PLA2 (−/−) mice (also referred to herein as PLA2 knock-out (KO) mice). In these experiments, wild-type and PLA2 (−/−) mice were maintained on a high fat/high sucrose diet, details of which are described below.
(§2) Briefly, four groups were set up, each having six mice. Three of the groups included six wild-type PLA2 (+/+) mice in each group (eighteen mice total), and one of the groups included six genetically deficient PLA2 (−/−) mice. One of the wild-type groups was used as a wild-type control group, and was not treated with ILY-4001. The other two wild-type groups were treated with ILY-4001—one group at a lower dose (indicated as “L” in Table 1) of 25 mg/kg/day, and the other at a higher dose (indicated as “H” in Table 1) of 90 mg/kg/day. The group comprising the PLA2 (−/−) mice was used as a positive control group.
(§3) The experimental protocol used in this study was as follows. The four groups of mice, including wild type and isogenic PLA2 (−/−) C57BL/J mice were acclimated for three days on a low fat/low carbohydrate diet. After the three day acclimation phase, the animals were fasted overnight and serum samples taken to establish baseline plasma cholesterol, triglyceride, and glucose levels, along with baseline body weight. The mice in each of the treatment groups were then fed a high fat/high sucrose diabetogenic diet (Research Diets D12331). 1000 g of the high fat/high sucrose D12331 diet was composed of casein (228 g), DL-methionine (2 g), maltodextrin 10 (170 g), sucrose (175 g), soybean oil (25 g), hydrogenated coconut oil (333.5 g), mineral mix S10001 (40 g), sodium bicarbonate (10.5 g), potassium citrate (4 g), vitamin mix V10001 (10 g), and choline bitartrate (2 g). This diet was supplemented with ILY-4001 treatments such that the average daily dose of the compound ingested by a 25 g mouse was: 0 mg/kg/day (wild-type control group and PLA2 (−/−) control group); 25 mg/kg/day (low-dose wild-type treatment group), or 90 mg/kg/day (high-dose wild-type treatment group). The animals were maintained on the high fat/high sucrose diet, with the designated ILY-4001 supplementation, for a period of ten weeks.
(§4) Body weight measurements were taken for all animals in all treatment and control groups at the beginning of the treatment period and at 4 weeks and 10 weeks after initiation of the study. (See Example 5A). Blood draws were also taken at the beginning of the treatment period (baseline) and at 4 weeks and 10 weeks after initiation of the study, in order to determine fasting glucose (See Example 5B). Cholesterol and triglyceride levels were determined from blood draws taken at the beginning of the treatement (baseline) and at ten weeks. (See Example 5C).
In the study generally described above in Example 5, body weight measurements were taken for all animals in all treatment and control groups at the beginning of the treatment period and at 4 weeks and 10 weeks after initiation of the study.

[4] = Pharmokinetic study, bioavailability (Example 6C); assay type: in vivo, mice; conditions: ORAL 30 mg/kg
Source text: This example characterized ILY-4001 [2-(3-(2-amino-2-oxoacetyl)-1-(biphenyl-2-ylmethyl)-2-methyl-1H-indol-4-yloxy)acetic acid], alternatively referred to herein as methyl indoxam, with respect to activity, as determined by IC50 assay (Example 6A), with respect to cell absorbtion, as determined by in-vitro Caco-2 assay (Example 6B) and with respect to bioavailability, as determined using in-vivo mice studies (Example 6C).
This example evaluated the bioavailability of ILY-4001 [2-(3-(2-amino-2-oxoacetyl)-1-(biphenyl-2-ylmethyl)-2-methyl-1H-indol-4-yloxy)acetic acid], alternatively referred to herein as methyl indoxam. […]
Bioavailability was calculated as a ratio of AUC-oral/AUC-intravenous (IV). To determine this ratio, a first set of subject animals were given a measured intravenous (IV) dose of ILY-4001, followed by a determination of ILY-4001 levels in the blood at various time points after administration (e.g., 5 minutes through 24 hours). Another second set of animals was similarly dosed using oral administration, with blood levels of ILY-4001 determined at various time points after administration (e.g., 30 minutes through 24 hours). The level of ILY-4001 in systemic circulation were determined by generally accepted methods (for example as described in Evans, G., A Handbook of Bioanalysis and Drug Metabolism. Boca Raton, CRC Press (2004)). […]

Caco-2 cells = experiment: Caco-2 permeability study (Example 6B); assay type: in vitro ADME, human
Procedure: The culture medium was refreshed every 48 hours.

mouse PLA2 IB enzyme = mouse PLA2 IB enzyme (Mus musculus, UniProt Q9Z0Y2); conditions: pyrene substrate release from vesicles (Singer, Ghomashchi et al. 2002); read-out: IC50 versus the mouse PLA2 IB enzyme; cited from earlier work
Stability at low pH = assay type: physicochemical; conditions: predicted to survive passage through the stomach
human PLA2 IB enzyme = human PLA2 IB enzyme (Homo sapiens, UniProt P04054); conditions: pyrene substrate release from vesicles (Singer, Ghomashchi et al. 2002); read-out: IC50 versus the human PLA2 IB enzyme; cited from earlier work
[5] = test system: wild-type C57BL/6 mice on high fat/high sucrose diet; experiment: Serum cholesterol and triglycerides in mice on high fat/high sucrose diabetogenic diet (Example 5C); assay type: in vivo; conditions: 10 weeks
Procedure: as §1, §2, §3
as §4, with “(See Example 5C).” left out

[6] = test system: wild-type C57BL/6 mice on high fat/high sucrose diet; experiment: Fasting serum glucose in mice on high fat/high sucrose diabetogenic diet (Example 5B); assay type: in vivo; conditions: low dose 25 mg/kg/day (group 2)
Procedure: as §1, §2
The experimental protocol used in this study was as follows. […]
Body weight measurements were taken for all animals in all treatment and control groups at the beginning of the treatment period and at 4 weeks and 10 weeks after initiation of the study. […] Cholesterol and triglyceride levels were determined from blood draws taken at the beginning of the treatement (baseline) and at ten weeks. […]

[7] = high dose 90 mg/kg/day (group 3)
[8] = low dose 25 mg/kg/day (group 2)

human pancreatic secreted PLA2 (hps PLA2), sequence (P04054 23-148): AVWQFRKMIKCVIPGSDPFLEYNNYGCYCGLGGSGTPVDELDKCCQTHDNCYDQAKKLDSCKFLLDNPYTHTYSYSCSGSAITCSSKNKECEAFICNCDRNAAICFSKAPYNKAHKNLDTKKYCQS
porcine pancreatic secreted PLA2 (pps PLA2), sequence (P00592 23-146): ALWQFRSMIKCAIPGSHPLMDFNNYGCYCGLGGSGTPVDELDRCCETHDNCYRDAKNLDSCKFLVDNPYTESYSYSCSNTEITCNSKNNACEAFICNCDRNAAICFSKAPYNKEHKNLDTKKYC
human PLA2 IB enzyme, sequence (P04054 23-148): as the sequence (P04054 23-148) above
mouse PLA2 IB enzyme, sequence (Q9Z0Y2 23-146): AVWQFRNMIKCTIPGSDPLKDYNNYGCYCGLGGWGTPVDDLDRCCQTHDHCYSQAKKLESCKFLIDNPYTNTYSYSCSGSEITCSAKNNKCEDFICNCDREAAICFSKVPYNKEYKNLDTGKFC

Cc1c(CC(=O)NN)c2cc(OCCCC(=O)O)ccc2n1Cc1ccccc1
IC50 pps PLA2 [1]: no activity
IC50 hps PLA2 [2]: no activity

Cc1c(C(=O)C(N)=O)c2c(/C=C/C(=O)O)cccc2n1Cc1ccccc1
IC50 [2]: > 100000 nM

Cc1c(C(=O)C(N)=O)c2c(CCC(=O)O)cccc2n1Cc1ccccc1
IC50 [2]: > 100000 nM

Cc1c(C(=O)C(N)=O)c2c(OCC(=O)O)cccc2n1Cc1ccccc1-c1ccccc1 [ILY-4001, 2-(3-(2-amino-2-oxoacetyl)-1-(biphenyl-2-ylmethyl)-2-methyl-1H-indol-4-yloxy)acetic acid]
body weight gain relative to PLA2 (−/−) mice ([3]; 25 mg/kg/d (low-dose) in diet, ten weeks): modulated to an extent comparable to that achieved in the PLA2 (−/−) mice
body weight gain relative to PLA2 (−/−) mice ([3]; 25 mg/kg/d in diet, four weeks): modulated to an extent approaching that achieved in the PLA2 (−/−) mice
body weight gain compared to the wild-type control group ([3]; 25 mg/kg/d in diet): significantly reduced body weight gains
body weight gain relative to PLA2 (−/−) mice ([3]; 90 mg/kg/d in diet, four weeks): modulated to an extent approaching that achieved in the PLA2 (−/−) mice
body weight gain compared to the wild-type control group ([3]; 90 mg/kg/d in diet): significantly reduced body weight gains
level of non-absorption from the GI tract into systemic circulation [4]: ~72%
apparent permeability (Caco-2 cells; Caco-2 monolayers, apical to basolateral, 50 ug/ml): around 1.66×10^−7 cm/s
absorbtion from the GI lumen (Caco-2 cells; based on Caco-2 assays and pharmokinetic studies): relatively low absorbtion
IC50 (mouse PLA2 IB enzyme): ~150 nM
stability at low pH (Stability at low pH): stable at low pH
IC50 (human PLA2 IB enzyme): ~200 nM
plasma levels of cholesterol [5, 7]: substantially reduced
plasma levels of triglycerides [5, 7]: substantially reduced
plasma levels of cholesterol [5, 8]: substantially reduced
plasma levels of triglycerides [5, 8]: substantially reduced
fasting glucose levels ([6]; week four): moderately beneficial effect
fasting glucose levels ([6]; week ten): a beneficial effect was not observed

Lucifer Yellow [reference compound]
apparent permeability (paracellular transport control) (Caco-2 cells; Caco-2): around 2.82×10^−7+/−0.37×10^−7 cm/s
